# Results reported in patent US9833497B2, “Human originated EGF domain proteins and use of the same” (CHENGDU SOURCEBIO LIMITED-LIABILITY COMPANY, priority 2013, dated 2017).
# Assays:
# Type in all cases: cell-based
# Pseudomonas aeruginosa = assay: MIC against Gram-negative bacteria: Pseudomonas aeruginosa; conditions: 5×10^5 CFU/mL
# Procedure, shortened: (§1)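 Broth microdilution, LB medium, final inoculum 5×10^5 CFU/mL from McFarland 0.5 cultures. Recombinant human EGF domain proteins tested in two-fold steps, n=3. MIC: lowest concentration, no growth.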
# Klebsiella pneumonia = assay: MIC against Gram-negative bacteria: Klebsiella pneumonia; conditions: 5×10^5 CFU/mL
# Procedure, shortened: as §1
# Moraxella catarrhalis = assay: MIC against Gram-negative bacteria: Moraxella catarrhalis; conditions: 5×10^5 CFU/mL
# Procedure, shortened: as §1
# E. coli BL21 = assay: MIC against Gram-negative bacteria: E. coli BL21; conditions: 5×10^5 CFU/mL
# Procedure, shortened: as §1
# Enterobacter cloacae = assay: MIC against Gram-negative bacteria: Enterobacter cloacae; conditions: 5×10^5 CFU/mL
# Procedure, shortened: as §1
# Aeromonas hydrophila = assay: MIC against Gram-negative bacteria: Aeromonas hydrophila; conditions: 5×10^5 CFU/mL
# Procedure, shortened: as §1
# E. coli DH5α = assay: Antibacterial activity: MIC and growth curve against E. coli DH5α in 96-well plate; conditions: minimal inhibitory concentration against E. coli DH5α; 96-well plate, 5×10^5 CFU/mL, 37° C., judged after 8 h
# Procedure, shortened: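 Log-phase DH5α (OD600 about 0.5, 37° C, 185 rpm in LB) was pelleted, resuspended in fresh LB and seeded at 5×10^5 CFU/mL with recombinant protein at 50, 25 and 12.5 μg/mL (two-fold series), in triplicate. Plates were shaken at 175 rpm, 37° C, and OD600 was read every 30 min. MIC was the lowest concentration with no growth.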
# Citrobacter diversus = assay: MIC against Gram-negative bacteria: Citrobacter diversus; conditions: 5×10^5 CFU/mL
# Procedure, shortened: as §1
# Proteus mirabilis = assay: MIC against Gram-negative bacteria: Proteus mirabilis; conditions: 5×10^5 CFU/mL
# Procedure, shortened: as §1
# Serratia marcescens = assay: MIC against Gram-negative bacteria: Serratia marcescens; conditions: 5×10^5 CFU/mL
# Procedure, shortened: as §1
# Proteus vulgaris = assay: MIC against Gram-negative bacteria: Proteus vulgaris; conditions: 5×10^5 CFU/mL
# Procedure, shortened: as §1
# [1] = P. aeruginosa, 10 h cultivation at 37° C.
# [2] = K. pneumonia, 10 h cultivation at 37° C.
# [3] = M. catarrhalis, 10 h cultivation at 37° C.
# [4] = E. coli BL21, 10 h cultivation at 37° C.
# [5] = E. cloacae, 10 h cultivation at 37° C.
# [6] = A. hydrophila, 10 h cultivation at 37° C.
# [7] = C. diversus, 10 h cultivation at 37° C.
# [8] = P. mirabilis, 10 h cultivation at 37° C.
# [9] = S. marcescens, 10 h cultivation at 37° C.
# [10] = P. vulgaris, 10 h cultivation at 37° C.
# [11] = Pseudomonas aeruginosa, 10 h cultivation at 37° C.
# [12] = Klebsiella pneumonia, 10 h cultivation at 37° C.
# [13] = Moraxella catarrhalis, 10 h cultivation at 37° C.
# [14] = Enterobacter cloacae, 10 h cultivation at 37° C.
# [15] = Aeromonas hydrophila, 10 h cultivation at 37° C.
# [16] = Citrobacter diversus, 10 h cultivation at 37° C.
# [17] = Proteus mirabilis, 10 h cultivation at 37° C.
# [18] = Serratia marcescens, 10 h cultivation at 37° C.
# [19] = Proteus vulgaris, 10 h cultivation at 37° C.
Substance,MIC (E. coli DH5α),MIC (μg/mL) P. aeruginosa (Pseudomonas aeruginosa; [1]),MIC (μg/mL) K. pneumonia (Klebsiella pneumonia; [2]),MIC (μg/mL) M. catarrhalis (Moraxella catarrhalis; [3]),MIC (μg/mL) E. coli BL21 (E. coli BL21; [4]),MIC (μg/mL) E. cloacae (Enterobacter cloacae; [5]),MIC (μg/mL) A. hydrophila (Aeromonas hydrophila; [6]),MIC (μg/mL) C. diversus (Citrobacter diversus; [7]),MIC (μg/mL) P. mirabilis (Proteus mirabilis; [8]),MIC (μg/mL) S. marcescens (Serratia marcescens; [9]),MIC (μg/mL) P. vulgaris (Proteus vulgaris; [10]),MIC against P. aeruginosa (Pseudomonas aeruginosa; [11]),MIC against K. pneumonia (Klebsiella pneumonia; [12]),MIC against M. catarrhalis (Moraxella catarrhalis; [13]),MIC against E. coli BL21 (E. coli BL21; [4]),MIC against E. cloacae (Enterobacter cloacae; [14]),MIC against A. hydrophila (Aeromonas hydrophila; [15]),MIC against C. diversus (Citrobacter diversus; [16]),MIC against P. mirabilis (Proteus mirabilis; [17]),MIC against S. marcescens (Serratia marcescens; [18]),other results
PRT434 (DVNECATENPCVQTCVNTYGSFICRCDPGYELEEDGVHCS; listed as Homo sapiens),12.5 µg/mL,,,,,,,,,,,,,,,,,,,,MIC (Pseudomonas aeruginosa; [1]): 12.5 µg/mL; MIC (Klebsiella pneumonia; [2]): 50 µg/mL; MIC (Moraxella catarrhalis; [3]): 50 µg/mL; MIC (E. coli BL21; [4]): 50 µg/mL; MIC (Enterobacter cloacae; [5]): 12.5 µg/mL; MIC (Aeromonas hydrophila; [6]): 50 µg/mL; MIC (Citrobacter diversus; [7]): 12.5 µg/mL; MIC (Proteus mirabilis; [8]): 25 µg/mL; MIC (Serratia marcescens; [9]): 25 µg/mL; MIC (Proteus vulgaris; [10]): 12.5 µg/mL
PRT893 (NINECSSQPCRHGGTCQDRDNAYLCFCLKGTTGPNCE; listed as Homo sapiens),12.5 µg/mL,50 µg/mL,25 µg/mL,25 µg/mL,25 µg/mL,12.5 µg/mL,25 µg/mL,50 µg/mL,12.5 µg/mL,12.5 µg/mL,50 µg/mL,,,,,,,,,,
PRT501 (CGCNPVGSASDEPCTGPCVCKENVEGKACDRCKPGFYNLKEKNPRGCSE; listed as Homo sapiens),12.5 µg/mL,,,,,,,,,,,,,,,,,,,,"MIC against P. aeruginosa (Pseudomonas aeruginosa; 96-well plate, 37° C., 10 h): 50 µg/mL; MIC against K. pneumonia (Klebsiella pneumonia; 96-well plate, 37° C., 10 h): 25 µg/mL; MIC against M. catarrhalis (Moraxella catarrhalis; 96-well plate, 37° C., 10 h): 25 µg/mL; MIC against E. coli BL21 (E. coli BL21; 96-well plate, 37° C., 10 h): 25 µg/mL; MIC against E. cloacae (Enterobacter cloacae; 96-well plate, 37° C., 10 h): 12.5 µg/mL; MIC against A. hydrophila (Aeromonas hydrophila; 96-well plate, 37° C., 10 h): 25 µg/mL; MIC against C. diversus (Citrobacter diversus; 96-well plate, 37° C., 10 h): 12.5 µg/mL; MIC against P. mirabilis (Proteus mirabilis; 96-well plate, 37° C., 10 h): 12.5 µg/mL; MIC against S. marcescens (Serratia marcescens; 96-well plate, 37° C., 10 h): 12.5 µg/mL; MIC against P. vulgaris (Proteus vulgaris; 96-well plate, 37° C., 10 h): 25 µg/mL"
PRT1480 (PGPCDSQPCQNGGTCVPEGLDGYQCLCPLAFGGEANCA; listed as Homo sapiens),50 µg/mL,,,,,,,,,,,25 µg/mL,12.5 µg/mL,12.5 µg/mL,12.5 µg/mL,25 µg/mL,12.5 µg/mL,25 µg/mL,50 µg/mL,50 µg/mL,MIC against P. vulgaris (Proteus vulgaris; [19]): 12.5 µg/mL
PRT237 (DINECTPPYSVYCGFNAVCYNVEGSFYCQCVPGYRLHSGNEQFSNSNENTCQ; listed as Homo sapiens),25 µg/mL,25 µg/mL,12.5 µg/mL,12.5 µg/mL,12.5 µg/mL,25 µg/mL,12.5 µg/mL,25 µg/mL,25 µg/mL,50 µg/mL,25 µg/mL,,,,,,,,,,
PRT1407 (LKTMCPDQCSGHGTYLQESGSCTCDPNWTGPDCS; listed as Homo sapiens),50 µg/mL,,,,,,,,,,,12.5 µg/mL,12.5 µg/mL,50 µg/mL,25 µg/mL,12.5 µg/mL,50 µg/mL,12.5 µg/mL,12.5 µg/mL,25 µg/mL,MIC against P. vulgaris (Proteus vulgaris; [19]): 12.5 µg/mL
